Consider four compounds from PMC6426897, “Inhibition of NLRP3 inflammasome activation by cell-permeable stapled peptides” (Scientific Reports, 2019).

Where a SMILES comes first, the peptide text is derived from it. Bridges are numbered along the chain shown (N, C = ends). [ ]: non-standard residue; d: D form. R8 = C=CCCCCCC[C@@](C)(N)C(=O)O; S5 = C=CCCC[C@](C)(N)C(=O)O

One data set deals with NLRP3 inflammasome. The data set is described as follows: IL-1β release from THP-1 cells stimulated with LPS and nigericin (ELISA). Type of data set: cell-based, human. The settings on record: 10, 50 and 100 μM peptide for 4 hours, then LPS 4 hours, nigericin 1 hour; Fig. 6. The method, then:
We next examined whether the ASC peptides could inhibit IL-1β production, which is regulated by the inflammasome. We used THP-1 human monocytic cells to study inflammasome activation as they express high levels of NLRP3, ASC, and pro-casp-1. THP-1 cells were incubated with ms_ASC^PYD #1–6 or ms_NLRP3^PYD peptides at increasing concentrations for 4 hours and were then stimulated with LPS for 4 hours, followed by the NLRP3 activator nigericin for 1 hour. IL-1β levels were measured in the culture supernatant. […] The ms_ASC^PYD peptides reduced IL-1β production from THP-1 cells in response to LPS/nigericin stimulation to variable degrees (Fig. 6A). […] We decided to continue investigating in detail the inhibitory effects of ms_ASC^PYD #5 and #6 peptides, as their estimated binding energies matched well with the experimental data of suppression of ASC-dependent IL-1 release in a dose-dependent manner. Since ms_ASCPYD #6 is the shorter version of ms_ASCPYD #5, this selection also enabled us to verify the effect of varying peptide lengths.
Human monocytic THP-1 cells (1 × 10^7 cells) were plated in a 10-cm tissue culture dish and treated with PMA (200 nM) overnight to differentiate monocytic cells into macrophages. Cells were then washed and allowed to rest in fresh media for another day. For stimulation, differentiated THP-1 cells were trypsinized and seeded in 96-well plates (2 × 10^6/well). Peripheral blood mononuclear cells were isolated by Ficoll-Hypaque density gradient centrifugation from buffy coats obtained from anonymous donors provided by the National University Hospital Blood Bank, Singapore. Isolation of monocytes was performed using negative selection with the Monocyte Isolation Kit II (Miltenyi Biotech), following the manufacturer’s instructions. Monocytes were plated in tissue culture non-treated 96-well plates (2.5 × 10^5/well) in 250 µl RPMI 1640-Glutamax media supplemented with 3% human AB serum (Gemini Bio Products).
THP-1 cells and monocytes were incubated with NLRP3^PYD (12.5–25–50 μM), ASC^PYD #5 (12.5-25-50-100 μM) or ASC^PYD #6 (12.5-25-50-100 μM) for the indicated durations. Cells were then washed once with PBS and primed with E. coli LPS (0.1 μg/ml, Invivogen) for 4 h followed by stimulation with nigericin (10 μM) for an additional 1 h or ATP ([…]) for an additional 30 min. The cell culture supernatants were then collected and centrifuged at 500 × g to remove cells and cellular debris.
IL-1β levels were measured using antibodies from eBioscience (cat. #14-7018-81 and #13-7016-85), following the manufacturer’s instructions. IL-18 levels were measured using antibodies from MBL (D044-3 and D045-6) following the manufacturer’s instructions. The absorbance was measured at 450 nm with the reference wavelength at 570 nm, using an M200 Infinite plate reader (Tecan).
(In general: In an ELISA, binding on a coated surface is turned into a signal by an enzyme label.)

Data set [1] is described as follows: Circular dichroism, percentage of helicity (K2D3). In kind it is physicochemical. To be noted: CD, room temperature, water, 100 μM peptide; estimated with K2D3. An excerpt: The conformation of helix 2 (^16TAEELKKFKLKLLSV^30) bound to ASC^PYD (Fig. 1A) was used as the starting structure for the peptide-protein interaction modeling. Following I,I + 7 stapling scheme, we inserted a hydrocarbon staple across positions 5 and 12 along the peptide and then introduced mutations to produce a set of stapled peptides. Two variants of the template peptide were designed – a short version containing 13 residues (ms_ASC^PYD #6) and a long version containing 15 residues (ms_ASC^PYD #1–5) with two additional residues at the N-terminus (Table 1). These two additional residues were inserted to increase the length of the peptide, thus potentially enabling sufficient conformational flexibility for the region involving the critical Arg3 to remain helical. A similar approach was taken to introduce the staple in the ms_NLRP3^PYD peptide. As determined from Circular Dichroism (CD) spectra, inserting the I,I + 7 staple had the intended effect of increasing helicity of the peptides (Fig. 3). […] Percentage of helicity was much higher for ASC^PYD stapled peptides #5 and #6, 95% and 70% respectively at 100 μM peptide concentration. Percentage of helicity for the peptides were estimated from the web server K2D3[36] using CD data.
Figure 3 Circular dichroism (CD) spectra of (A) NLRP3^PYD and (B) ASC^PYD peptides to measure secondary structures.

For another data set, the target named is ASC PYD (Homo sapiens) (UniProt Q9ULZ3). The data set is described as follows: NMR titration. To be noted: cited from earlier work.

In the case of `CC(=O)N[C@H](C(=O)N[C@@H](C)C(=O)N[C@@H](CCCNC(=N)N)C(=O)N[C@@H](CCC(=O)O)C(=O)N[C@]1(C)CCCCCCC=CCCC[C@@](C)(C(=O)N[C@@H](CCC(=O)O)C(=O)N[C@@H](CO)C(=O)N[C@H](C(N)=O)C(C)C)NC(=O)[C@H](CCCCN)NC(=O)[C@H](Cc2ccccc2)NC(=O)[C@H](CCCCN)NC(=O)[C@H](C)NC(=O)[C@H](CCCCN)NC(=O)[C@H](CCCCN)NC1=O)[C@@H](C)O` [ms_ASC^PYD #2] (Ac-TARE[R8]KKAKFK[S5]ESV-NH2; staple 5-12), the “IL-1β release (in words)” value in the data set on NLRP3 inflammasome was “inability to suppress IL-1β release”. For the compound `CC(=O)N[C@H](C(=O)N[C@@H](CC(=O)O)C(=O)N[C@]1(C)CCCCCCC=CCCC[C@@](C)(C(=O)N[C@@H](CCC(=O)O)C(=O)N[C@@H](CC(=O)O)C(=O)N[C@@H](Cc2ccc(O)cc2)C(N)=O)NC(=O)[C@H](Cc2c[nH]cn2)NC(=O)[C@H](Cc2ccccc2)NC(=O)[C@H](CCCCN)NC(=O)[C@H](C)NC(=O)[C@H](CCCCN)NC(=O)[C@H](CCCCN)NC1=O)C(C)C` [ms_NLRP3^PYD] (Ac-VD[R8]KKAKFH[S5]EDY-NH2; staple 3-10), in data set [1], the Percentage of helicity is given as 48%. In addition, the “IL-1β release (in words)” value in the data set with NLRP3 inflammasome was “produced less IL-1β in a dose-dependent manner”. For the compound ASC PYD (from UniProt Q9ULZ3), in the data set with ASC PYD (Homo sapiens), the Kd was 65 µM. Turning to Ac-VDLKKFKMHLEDY-NH2 [wt_NLRP3^PYD], in data set [1], the Percentage of helicity entry is “no helicity”.

The Kd is the concentration at which binding is half-saturated.
